# Measurements as given in patent publication US5470873A, “Diabetes prevention and treatment using gamma-pyrones” (University Technologies International, Inc., priority 1994, dated 1995).
# Values joined by “and” are separate entries in the source; they are usually repeats but may differ in a detail not shown here. Equal values may be shown once. “Also recorded” adds a separate entry of the source.
# What was measured:
# [1] = Prevention of clinical diabetes (glycosuria) in NOD mice; assay type: in vivo; details: observed to 35 weeks, incl. 15 weeks after cessation of treatment
# Protocol: (§1) NOD mice were dosed with maltol to evaluate its effect on the pathogenesis of type I diabetes. Mice received 5 mg maltol/mouse every other day from age 2 weeks until they were 20 weeks old. Maltol extracted from ginseng as described in Example 2 was used for the first 10 weeks, then maltol purchased from Sigma Co., St. Louis, MO was used thereafter. The mice were kept until they were 35 weeks old. Urine glucose was measured at 3-day intervals from 10 to 35 weeks of age. Urinary glucose and ketone levels were determined using Diastix and Ketostix reagent slips (Miles, Ontario, Canada). Individual mice were classified as being diabetic on the basis of positive glycosuria^38. […] In contrast, 78% of age-matched control mice (22 mice) spontaneously developed autoimmune diabetes. At 35 weeks of age, fasting (8 hours of fasting) and non-fasting blood glucose levels were measured. Blood was obtained from the retro-orbital venous plexus of fasting and nonfasting NOD mice. Glucose levels were measured enzymatically by the glucose oxidase method with o-dianisidine dihydrochloride as the reactive dye ^39-41 . The mean nonfasting blood glucose level of 35 ICR mice (nondiabetic control mice; NOD mice were derived from ICR mice) was 149±27 mg/dl. Any non-fasting mouse with a blood glucose level greater than 230 mg/dl (3 SD above the mean) was scored as diabetic. The mean fasting blood glucose level of 38 ICR mice was 137±28 mg/dl. Any fasting mouse with a blood glucose level greater than 221 mg/dl (3 SD above the mean) was scored as diabetic.
# [2] = Blood glucose levels in NOD mice (glucose oxidase method); assay type: in vivo; details: NOD mice
# Protocol: as §1
# pancreatic islets = assay: Histologic changes of pancreatic islets (hematoxylin and eosin); assay type: in vivo, NOD mice; parameters: key to Diabetes: "+" indicates "yes"; "-" indicates "no"
# Text: Maltol-treated and untreated NOD mice were sacrificed and 25% of each pancreas was fixed in 6% Formalin. Paraffin-embedded sections were stained with hematoxylin and eosin and examined under an Olympus light microscope ^49. To see whether there are any histological differences between the pancreatic islets of DPD-treated and untreated NOD mice, the pancreatic islets of 35 week old mice were examined with the light microscope after staining with hematoxylin and eosin. […] The rest of their islets were rated as having either severe (22%), moderate (27%), mild (25%) or no (6%) insulitis. […] In addition, there were histopathological changes in their pancreatic islets that were rated as moderate (22% of examined islets), mild (30%) or as having no insulitis (15%).
# pancreatic beta cells = assay: Destruction of pancreatic beta cells detected by fluorescein labelled anti-insulin antibody; assay type: in vivo, NOD mice; parameters: key to Diabetes: "+" indicates "yes"; "-" indicates "no"
# Protocol: Fluorescein isothiocyanate-labelled anti-insulin antibody was prepared as described previously 45. Briefly, gamma globulin that was prepared by immunizing guinea pigs with glutaraldehyde polymerized porcine insulin and purified by Sephadex G-200 chromatography was purchased from Index Corp., Glenwood, Ill, USA. This material was labelled with FITC. Unconjugated FITC was removed by dialysis against 0.01M PBS (pH 7.5) and by gel filtration through a Sephadex G-25. The labelled gamma globulin was subsequently absorbed with acetone-treated mouse liver powder to eliminate nonspecific fluorescence. Pancreatic sections (from 25% of each pancreas) prepared from maltol-treated and untreated NOD mice were stained with FITC-labelled anti-insulin antibody and examined under a fluorescent microscope as described elsewhere 47.48. Briefly, pancreatic sections on the slides were flooded with FITC-labelled anti-insulin antibody and incubated in a humidity chamber overnight at 4° C. in the dark. The slides were then washed in three changes of cold PBS for a total of 20 min to remove any unattached antibody, mounted with Elvanol and observed with an Olympus fluorescence microscope ^45. As it is difficult to determine whether the lymphocytes observed in the pancreatic islets are contributing to beta cell destruction, another method was used to determine whether beta cells from maltol-treated or untreated NOD mice were destroyed or not. Sections of pancreatic islets were stained with a fluorescein-labelled anti-insulin antibody and the number of insulin-containing beta cells in the islets was estimated.
# [3] = individual DPD-treated non-diabetic NOD mice (animal 1-5), 35 weeks
# [4] = 30% to 69% of beta cell destruction, individual DPD-treated NOD mice (animal 1-5)
# [5] = less than 30% of beta cell destruction, individual DPD-treated NOD mice (animal 1-5)
# [6] = no destruction of beta cells, individual DPD-treated NOD mice (animal 1-5)
# [7] = over 70% of beta cell destruction, individual DPD-treated NOD mice (animal 1-5)
structure (smiles),measurement,setting,value
"Cc1occc(=O)c1O [DPD, maltol]",Prevention / recurrence of clinical diabetes (in words),[1],no recurrence of the disease; also recorded: prevented clinical diabetes completely; also recorded: prevents the onset of clinical diabetes
same,Hyperglycemia / clinical diabetes by blood glucose (in words),[2],do not exhibit hyperglycemia; also recorded: prevents clinical diabetes
same,Diabetes,"pancreatic islets; Table 2, individual DPD-treated NOD mice",-
same,"Mild histopathological changes, share of examined islets",pancreatic islets; group of DPD-treated NOD mice,30%
same,"Moderate histopathological changes, share of examined islets",pancreatic islets; group of DPD-treated NOD mice,22%
same,"No insulitis, share of examined islets",pancreatic islets; group of DPD-treated NOD mice,15%
same,"Severe insulitis, share of examined islets","pancreatic islets; group of DPD-treated NOD mice, untreated diabetic 35%",about 19%
same,"Severe beta cell necrosis, share of examined islets","pancreatic islets; group of DPD-treated NOD mice, untreated diabetic 64%",approximately 14%
same,"Beta Cell Necrosis, islets affected / islets examined",pancreatic islets; [3],5/31 and 5/32 and 3/28 and 4/32
same,"Beta Cell Necrosis, percent of islets",pancreatic islets; [3],16% and 11% and 13%
same,"Intact Islet, islets / islets examined",pancreatic islets; [3],4/31 and 5/32 and 4/28
same,"Intact Islet, percent of islets",pancreatic islets; [3],19% and 15% and 14% and 13%
same,"Mild Insulitis, islets affected / islets examined",pancreatic islets; [3],9/31 and 8/32 and 11/28 and 10/31 and 9/32
same,"Mild Insulitis, percent of islets",pancreatic islets; [3],29% and 25% and 39% and 33% and 28%
same,"Moderate Insulitis, islets affected / islets examined",pancreatic islets; [3],7/31 and 8/32 and 5/28 and 6/31
same,"Moderate Insulitis, percent of islets",pancreatic islets; [3],23% and 25% and 18% and 19%
same,"Severe Insulitis, islets affected / islets examined",pancreatic islets; [3],6/31 and 6/32 and 5/28
same,"Severe Insulitis, percent of islets",pancreatic islets; [3],19% and 18%
same,"Moderate Destruction of beta cells, islets / islets examined",pancreatic beta cells; [4],4/16 and 5/17 and 3/18 and 4/19
same,"Moderate Destruction of beta cells, percent of islets",pancreatic beta cells; [4],25% and 29% and 17% and 21%
same,Diabetes,"pancreatic beta cells; Table 3, individual DPD-treated NOD mice",-
same,Destruction of pancreatic beta cells (in words),"pancreatic beta cells; compared to untreated, diabetic NOD mice",significantly lower
same,"Mild destruction, share of examined islets",pancreatic beta cells; group of DPD-treated NOD mice,45%
same,"Moderate destruction, share of examined islets",pancreatic beta cells; group of DPD-treated NOD mice,23%
same,"No destruction, share of examined islets",pancreatic beta cells; group of DPD-treated NOD mice,12%
same,"Severe destruction, share of examined islets",pancreatic beta cells; group of DPD-treated NOD mice,20%
same,"Mild Destruction of beta cells, islets / islets examined",pancreatic beta cells; [5],7/16 and 7/17 and 9/18 and 9/19
same,"Mild Destruction of beta cells, percent of islets",pancreatic beta cells; [5],43% and 41% and 50% and 47%
same,"Intact, islets / islets examined",pancreatic beta cells; [6],2/16 and 2/17 and 2/18 and 2/19
same,"Intact, percent of islets",pancreatic beta cells; [6],13% and 12% and 11%
same,"Severe Destruction of beta cells, islets / islets examined",pancreatic beta cells; [7],3/16 and 3/17 and 4/18 and 4/19
same,"Severe Destruction of beta cells, percent of islets",pancreatic beta cells; [7],19% and 18% and 22% and 21%
